From ChEMBL document CHEMBL1649107, “Sulfonate-containing thiiranes as selective gelatinase inhibitors” (ACS Med Chem Lett, 2011)
Converted amounts (≈) assume the structure as drawn. The source made the active and inactive calls. The rule behind the calls is not given here.

What was measured:
[1] = Half life in rat liver microsomes at 100 uM by HPLC; assay type: ADME, Microsome
[2] = molecular target: T1, Matrix metalloproteinase-9 (Homo sapiens, UniProt P14780); assay: Inhibition of human recombinant MMP9 catalytic domain assessed as dissociation rate constant by substrate hydrolysis based fluorescence spectrophotometry
T1 sequence (P14780 whole entry, the tested form may be a part): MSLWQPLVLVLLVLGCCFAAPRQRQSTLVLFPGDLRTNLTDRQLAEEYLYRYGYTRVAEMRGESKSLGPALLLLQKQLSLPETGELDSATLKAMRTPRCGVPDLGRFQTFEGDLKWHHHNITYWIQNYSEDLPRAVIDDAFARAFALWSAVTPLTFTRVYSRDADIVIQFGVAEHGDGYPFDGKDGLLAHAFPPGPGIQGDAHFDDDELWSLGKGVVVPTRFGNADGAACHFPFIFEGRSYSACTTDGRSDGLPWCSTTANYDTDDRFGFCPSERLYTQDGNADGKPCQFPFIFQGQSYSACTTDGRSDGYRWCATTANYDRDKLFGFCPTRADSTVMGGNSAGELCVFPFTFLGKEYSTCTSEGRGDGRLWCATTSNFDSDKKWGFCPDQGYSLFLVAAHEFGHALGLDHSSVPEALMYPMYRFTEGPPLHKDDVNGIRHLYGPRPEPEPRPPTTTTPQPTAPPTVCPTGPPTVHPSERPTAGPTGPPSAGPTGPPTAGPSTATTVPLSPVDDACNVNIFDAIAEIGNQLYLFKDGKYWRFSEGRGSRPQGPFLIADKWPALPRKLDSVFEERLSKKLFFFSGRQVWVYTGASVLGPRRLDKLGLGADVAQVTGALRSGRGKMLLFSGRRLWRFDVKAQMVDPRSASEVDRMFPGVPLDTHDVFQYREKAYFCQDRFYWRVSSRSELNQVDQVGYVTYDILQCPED

[3] = Intrinsic clearance in rat liver microsomes at 100 uM by HPLC; assay type: ADME, Microsome
[4] = molecular target: T2, Matrix metalloproteinase-14 (Homo sapiens, UniProt P50281); assay: Inhibition of human recombinant MMP14 catalytic domain by substrate hydrolysis based fluorescence spectrophotometry
[5] = molecular target: T3, Stromelysin-1 (Homo sapiens, UniProt P08254); assay: Inhibition of human recombinant MMP3 catalytic domain at 200 uM by substrate hydrolysis based fluorescence spectrophotometry
Target sequence in this assay (P08254 100-477 limits assumed): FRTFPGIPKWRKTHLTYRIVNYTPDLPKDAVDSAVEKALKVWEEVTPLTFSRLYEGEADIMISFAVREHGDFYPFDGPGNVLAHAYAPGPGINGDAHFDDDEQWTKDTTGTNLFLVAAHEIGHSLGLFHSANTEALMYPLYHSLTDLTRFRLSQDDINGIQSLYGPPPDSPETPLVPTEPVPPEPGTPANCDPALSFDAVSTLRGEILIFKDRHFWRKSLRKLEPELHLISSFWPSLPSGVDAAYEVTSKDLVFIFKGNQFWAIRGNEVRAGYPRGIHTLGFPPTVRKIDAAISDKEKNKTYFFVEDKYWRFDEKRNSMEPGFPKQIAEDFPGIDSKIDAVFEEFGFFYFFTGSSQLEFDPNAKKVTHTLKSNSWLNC

[6] = molecular target: T4, Matrilysin (Homo sapiens) (UniProt P09237); assay: Inhibition of human recombinant MMP7 catalytic domain assessed as dissociation rate constant by substrate hydrolysis based fluorescence spectrophotometry
T4 sequence (whole entry): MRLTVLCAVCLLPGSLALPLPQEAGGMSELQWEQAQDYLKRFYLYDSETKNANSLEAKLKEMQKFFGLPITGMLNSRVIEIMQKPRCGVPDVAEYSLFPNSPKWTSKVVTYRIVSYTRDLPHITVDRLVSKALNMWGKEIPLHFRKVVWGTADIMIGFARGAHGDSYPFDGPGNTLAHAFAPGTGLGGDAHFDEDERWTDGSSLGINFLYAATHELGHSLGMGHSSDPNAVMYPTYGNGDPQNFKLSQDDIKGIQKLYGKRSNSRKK

[7] = molecular target: T2, Matrix metalloproteinase-14; assay: Inhibition of human recombinant MMP14 catalytic domain assessed as dissociation rate constant by substrate hydrolysis based fluorescence spectrophotometry
[8] = Half life in rat liver microsomes at 200 uM by HPLC; assay type: ADME, Microsome
[9] = molecular target: T1, Matrix metalloproteinase-9
Description: Inhibition of human recombinant MMP9 catalytic domain by substrate hydrolysis based fluorescence spectrophotometry

[10] = molecular target: 72 kDa type IV collagenase (Homo sapiens, UniProt P08253)
Chain of 72 kDa type IV collagenase (P08253 whole entry): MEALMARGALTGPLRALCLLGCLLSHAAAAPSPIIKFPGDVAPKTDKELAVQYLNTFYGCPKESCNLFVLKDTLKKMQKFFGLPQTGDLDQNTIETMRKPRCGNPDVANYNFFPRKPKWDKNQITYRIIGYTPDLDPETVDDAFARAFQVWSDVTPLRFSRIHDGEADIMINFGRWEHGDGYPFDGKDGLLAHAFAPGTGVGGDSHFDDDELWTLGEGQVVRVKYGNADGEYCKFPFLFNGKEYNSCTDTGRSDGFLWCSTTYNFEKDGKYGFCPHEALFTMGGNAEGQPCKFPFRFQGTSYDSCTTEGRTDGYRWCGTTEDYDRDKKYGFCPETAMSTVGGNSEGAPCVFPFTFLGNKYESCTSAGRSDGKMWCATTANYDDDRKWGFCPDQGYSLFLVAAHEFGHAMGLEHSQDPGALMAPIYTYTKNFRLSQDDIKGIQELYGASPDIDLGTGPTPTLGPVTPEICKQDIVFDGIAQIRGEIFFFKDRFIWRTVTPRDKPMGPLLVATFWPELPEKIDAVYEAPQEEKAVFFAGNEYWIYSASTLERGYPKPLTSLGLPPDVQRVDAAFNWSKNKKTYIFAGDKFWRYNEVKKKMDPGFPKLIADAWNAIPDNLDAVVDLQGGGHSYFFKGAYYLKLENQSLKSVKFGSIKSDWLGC
Description: Inhibition of MMP2 by substrate hydrolysis based fluorescence spectrophotometry

[11] = Intrinsic clearance in rat liver microsomes at 200 uM by HPLC; assay type: ADME, Microsome
[12] = molecular target: T5, Matrilysin (Homo sapiens, UniProt P09237)
T5 sequence (P09237 whole entry): T4 sequence (whole entry)
Description: Inhibition of human recombinant MMP7 catalytic domain by substrate hydrolysis based fluorescence spectrophotometry

[13] = physchem; conditions: aqueous
Description: Aqueous solubility of the compound

[14] = molecular target: T6, Interstitial collagenase (Homo sapiens) (UniProt P03956); assay: Inhibition of human recombinant MMP1 catalytic domain at 200 uM by substrate hydrolysis based fluorescence spectrophotometry
T6 sequence (whole entry): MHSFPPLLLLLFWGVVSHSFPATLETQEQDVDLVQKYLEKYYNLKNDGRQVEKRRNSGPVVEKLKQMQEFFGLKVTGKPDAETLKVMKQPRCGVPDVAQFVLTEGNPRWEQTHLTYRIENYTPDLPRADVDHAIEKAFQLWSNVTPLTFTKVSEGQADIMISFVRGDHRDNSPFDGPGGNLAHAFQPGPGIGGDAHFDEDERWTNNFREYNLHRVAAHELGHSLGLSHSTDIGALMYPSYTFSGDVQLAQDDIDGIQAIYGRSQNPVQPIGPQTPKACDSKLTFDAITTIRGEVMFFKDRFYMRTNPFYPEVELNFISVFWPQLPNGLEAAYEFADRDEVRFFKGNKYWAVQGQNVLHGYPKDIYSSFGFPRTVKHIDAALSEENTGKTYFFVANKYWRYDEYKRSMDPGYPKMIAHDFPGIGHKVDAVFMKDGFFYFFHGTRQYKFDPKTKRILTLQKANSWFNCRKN

[15] = molecular target: T3, Stromelysin-1; assay: Inhibition of human recombinant MMP3 catalytic domain at 20 uM by substrate hydrolysis based fluorescence spectrophotometry
Target sequence in this assay (P08254 100-477 limits assumed): as the sequence (P08254 100-477 limits assumed) above

[16] = molecular target: T6, Interstitial collagenase (Homo sapiens); assay: Inhibition of human recombinant MMP1 catalytic domain at 30 uM by substrate hydrolysis based fluorescence spectrophotometry
[17] = molecular target: T4, Matrilysin (Homo sapiens); assay: Inhibition of human recombinant MMP7 catalytic domain at 30 uM by substrate hydrolysis based fluorescence spectrophotometry
[18] = molecular target: T4, Matrilysin (Homo sapiens); assay: Inhibition of human recombinant MMP7 catalytic domain at 40 uM by substrate hydrolysis based fluorescence spectrophotometry
[19] = molecular target: T6, Interstitial collagenase (Homo sapiens); assay: Inhibition of human recombinant MMP1 catalytic domain at 40 uM by substrate hydrolysis based fluorescence spectrophotometry
[20] = molecular target: T7, Interstitial collagenase (Homo sapiens, UniProt P03956)
T7 sequence (P03956 whole entry): T6 sequence (whole entry)
Description: Inhibition of human recombinant MMP1 catalytic domain by substrate hydrolysis based fluorescence spectrophotometry

[21] = molecular target: T6, Interstitial collagenase (Homo sapiens); assay: Inhibition of human recombinant MMP1 catalytic domain at 20 uM by substrate hydrolysis based fluorescence spectrophotometry
[22] = molecular target: T4, Matrilysin (Homo sapiens); assay: Inhibition of human recombinant MMP7 catalytic domain at 20 uM by substrate hydrolysis based fluorescence spectrophotometry
[23] = molecular target: T3, Stromelysin-1
Target sequence in this assay (P08254 whole entry, the tested form may be a part): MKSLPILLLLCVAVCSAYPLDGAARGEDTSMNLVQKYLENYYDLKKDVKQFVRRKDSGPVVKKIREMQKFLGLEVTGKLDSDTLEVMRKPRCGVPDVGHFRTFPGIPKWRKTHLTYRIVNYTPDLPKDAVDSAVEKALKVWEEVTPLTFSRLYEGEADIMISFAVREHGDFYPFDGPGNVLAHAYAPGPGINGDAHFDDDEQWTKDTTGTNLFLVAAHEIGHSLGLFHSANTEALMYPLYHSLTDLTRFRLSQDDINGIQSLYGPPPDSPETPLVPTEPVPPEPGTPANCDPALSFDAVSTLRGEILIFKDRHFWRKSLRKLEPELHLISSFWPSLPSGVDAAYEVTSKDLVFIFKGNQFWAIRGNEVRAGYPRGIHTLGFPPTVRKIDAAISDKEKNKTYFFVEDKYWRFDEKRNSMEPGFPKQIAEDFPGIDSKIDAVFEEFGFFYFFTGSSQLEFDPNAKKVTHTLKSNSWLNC
Description: Inhibition of human recombinant MMP3 catalytic domain by substrate hydrolysis based fluorescence spectrophotometry

Row | SMILES | half-life at 100 µM [1] [min] | Activity [2] [×10⁻³ /s] | CLint scaled at 100 µM [3] [mL/min/kg] | Ki [4] [nM] | inhibition [5] [%] | Activity [6] [×10⁻³ /s] | Activity [7] [×10⁻³ /s] | half-life at 200 µM [8] [min] | Ki [9] [nM] | Ki [10] [nM] | CLint scaled at 200 µM [11] [mL/min/kg] | Ki [12] [nM] | solubility [13] [µg/mL] | inhibition [14] | inhibition [15] [%] | also measured
1 | O=S(=O)(CC1CS1)c1ccc(Oc2ccccc2)cc1 (stereo not given) | 12 | 7.1 | 117 | 110 |  |  |  |  |  |  |  |  |  |  |  | 
2 | CCCS(=O)(=O)Oc1ccc(S(=O)(=O)CC2CS2)cc1 (stereo not given) |  | 0.9 |  | 32000 | 58 | 0.8 | 1.5 | 29.8 | 6200 | 280 | 47.2 | 35000 | 96 (≈ 285 µM) | 30% |  | 
3 | CC(C)CS(=O)(=O)Oc1ccc(Oc2ccc(S(=O)(=O)CC3CS3)cc2)cc1 (stereo not given) | 16.2 | 2 | 86.5 | 790 |  |  | 2 |  | 380 | 61 |  |  | 1.1 (≈ 2.49 µM) |  | 5 | inhibition [16]: inactive; inhibition [17]: inactive
4 | CCS(=O)(=O)Oc1ccc(Oc2ccc(S(=O)(=O)CC3CS3)cc2)cc1 (stereo not given) | 35.9 | 1.5 | 39 | 360 |  |  | 9 |  | 330 | 70 |  |  | 4.1 (≈ 9.89 µM) |  | 38 | inhibition [18]: 8%; inhibition [19]: inactive
5 | CCS(=O)(=O)Oc1ccc(S(=O)(=O)CC2CS2)cc1 (stereo not given) |  | 1.8 |  | 11000 | 62 | 0.6 | 1.6 | 31.8 | 12000 | 90 | 44.2 | 26000 | 114 (≈ 354 µM) | 7% |  | 
6 | CS(=O)(=O)Oc1ccc(S(=O)(=O)CC2CS2)cc1 (stereo not given) |  | 0.25 |  | 480 | 29 | 0.5 | 0.2 | 45.3 | 3900 | 390 | 31 | 11000 | 167 (≈ 542 µM) |  |  | Ki [20]: 41000 nM
7 | CC(C)CS(=O)(=O)Oc1ccc(S(=O)(=O)CC2CS2)cc1 (stereo not given) |  | 1.9 |  | 20000 | 25 | 1.4 | 1.7 | 36.1 | 3500 | 240 | 38.8 | 120000 | 230 (≈ 656 µM) | inactive |  | 
8 | CCCS(=O)(=O)Oc1ccc(Oc2ccc(S(=O)(=O)CC3CS3)cc2)cc1 (stereo not given) | 12.6 | 1.6 | 111 | 240 |  |  | 1.8 |  | 520 | 34 |  |  | 4 (≈ 9.33 µM) |  | 22 | inhibition [21]: inactive; inhibition [22]: 5%
9 | CS(=O)(=O)Oc1ccc(Oc2ccc(S(=O)(=O)CC3CS3)cc2)cc1 (stereo not given) | 24.8 | 0.1 | 56.5 |  |  |  |  |  |  |  |  |  | 3.5 (≈ 8.74 µM) |  |  | Ki [23]: 600 nM
